Measured values published in BigSolDB 2.1.

N#CN=C(N)N
solubility (mole fraction)
Details	283.15 K	288.15 K	293.15 K	298.15 K	303.15 K	308.15 K	313.15 K	318.15 K	323.15 K
in DMF	0.239	0.248	0.258	0.259	0.262	0.265	0.274	0.276	0.284
in water	0.00474	0.00594	0.00693	0.00897	0.0106	0.0134	0.0173	0.021	0.0244
